Reference: publication PMC9970268 (Cancer Research Communications, 2022)

Tests used:
Rac1 [1] = molecular target: T1, Rac1 (Homo sapiens, UniProt P63000); test: Rac activation pulldown assay in MDA-MB-231 cells; conditions: MDA-MB-231, 24 hours, various concentrations
Description: (§2) Rac-GTP and Cdc42-GTP were detected using Rac Activity Assay or Cdc42 Activity Assay, as per manufacturer's instructions (Cell Signaling Technology). Briefly, total cell lysates were quantified and added equally to PAK-p21–binding domain conjugated Sepharose beads. After 1 hour of incubation, beads were washed, bound proteins extracted in sample buffer, and Rac1-GTP and Cdc42-GTP detected by Western blot analysis using Rac1, Rac1b, or Cdc42 antibody. (n = 3 biological replicates).
(§3) Total cell lysates or pulldowns were Western blotted using routine procedures. The primary antibodies used were anti-Rac (Cell Signaling Technology), anti-Cdc42 (Abcam), anti-PAK1+PAK2+PAK3 (Cell Signaling Technology), anti-pPAK1 (T423)/PAK2 (T402; Abcam), anti-PAK1 + PAK2 + PAK3 (phospho T423; Abcam), Rac1B, and β-actin (Millipore-Sigma).

Rac1B splice variant = Rac1B splice variant (Homo sapiens, UniProt P63000); test: Rac1B activation pulldown assay in MDA-MB-468 cells; conditions: MDA-MB-468, 500 nmol/L, 24 hours
Description: as §2, §3

GFP-HER2-BM cells [2] = test: Apoptosis assay (Caspase-Glo3/7); format: cell-based, human; conditions: 500 nmol/L, 48 hours
Description: (§1) Apoptosis was measured using a Caspase-Glo3/7 Luminescence Assay Kit as per manufacturer's instructions (Promega, Corp.), as described previously ([23]). Briefly, Caspase-3/7 Glo reagent was added and incubated at room temperature for 60 minutes and caspase-3/7 activities were determined by detecting luminescence using Tecan Microplate Reader M100 (Tecan). Data were calculated as fold change from vehicle. (n = 3 biologic replicates: with three technical replicates each).

MDA-MB-231 cells = test: Apoptosis assay (Caspase-Glo3/7); format: cell-based, human; conditions: 500 nmol/L, 48 hours
Description: as §1

MDA-MB-468 cells = test: Apoptosis assay (Caspase-Glo3/7); format: cell-based, human; conditions: 500 nmol/L, 48 hours
Description: as §1

Rac1 [3] = molecular target: T1, Rac1; test: Rac activation pulldown assay (PAK p21-binding domain); conditions: GFP-HER2-BM cells, 250 nmol/L, 24 hours
Description: as §2, §3

[4] = test system: MDA-MB-231, GFP-HER2-BM, and MDA-MB-468 cells; test: Apoptosis assay (Caspase-Glo3/7), cell line not specified; format: cell-based, human; conditions: 500 nmol/L, 48 hours
Description: as §1

Rac1 [5] = molecular target: T1, Rac1; test: Nucleotide association assay, induced by EDTA; conditions: read-out: inhibition of EDTA-induced loading of N-MAR-GTP on Rac1
Description: (§4) The nucleotide loading on purified Rho GTPases was monitored using a fluorophore-based Rho GEF Exchange Assay Kit as per manufacturer's instructions (Cytoskeleton, Inc.). Drugs were diluted in exchange buffer and incubated with Rac1, Cdc42, or RhoA. […] After the initial five readings (T0), GEFs (Dbs or Vav2) or Ethylenediaminetetraacetic acid (EDTA) was added to stimulate exchange and readings were obtained every 30 seconds for at least 60 cycles.
After initial five readings, the exchange factor Dbs was added to catalyze the loading of N-
B. 2µM Rac1 was incubated with 0 or 2 µM

Rac1 [6] = molecular target: T1, Rac1; test: Nucleotide association assay, catalyzed by Vav2; format: biochemical; design: purchased Cytoskeleton, Inc; conditions: 2 or 10 μmol/L, N-MAR-GTP
Description: as §4

Cdc42 [7] = molecular target: Cdc42 (Homo sapiens, UniProt P60953); test: Cdc42 activation pulldown assay in MDA-MB-231 cells; conditions: MDA-MB-231, 24 hours
Description: as §2, §3

GFP-HER2-BM cells [8] = test: Transwell directed migration of attached and detached cells; format: cell-based, human; conditions: treated 24 hr
Description: migration. Cells treated for 24hr and the attached and detached cell populations recovered and equal cell numbers were seeded on Transwells with […] and incubated for 7 hr.
Cells that migrated to the underside of the membrane were stained with propidium iodide and imaged at 20X. Representatives images are a result from two technical replicates and three […]
(1 picture or pasted object on this page, not shown here)

[9] = molecular target: T2, Rac1(G15A) interaction with Vav2 (Homo sapiens, UniProt P63000, G15A); test: Rac1 (G15A) pulldown assay, Vav2; format: binding; conditions: 250 nmol/L, 1 hour preincubation, MDA-MB-231 cell lysates
T2 construct: purchased Cell Biolabs; host or cells: GEF from MDA-MB-231 lysate
Description: MDA-MB-231 cells were lysed in 1% Triton X-100, 20 mmol/L HEPES, pH 7.4, 150 mmol/L NaCl, 5 mmol/L MgCl2, and protease inhibitors, and processed as described previously ([20]). Equal amounts of protein from cleared lysates were incubated for 1 hour at 4°C with glutathione-agarose beads conjugated to GST-Rac1 and GST-Cdc42(G15A) nucleotide-free mutant (Cell Biolabs) that were preincubated (for 1 hour) with vehicle or Rac/Cdc42 inhibitors, as indicated. The beads were washed, and pulldowns were immunoblotted for Vav2 or Ect2.

Cdc42 [10] = conditions: metastatic breast cancer cells; cited from earlier work
GLP toxicity studies = conditions: GLP data from a Contact Research Organization; rodents or dogs
[11] = test system: HER-2–positive (HER2+) tumor; conditions: immunocompromised mice; cited from earlier work
in vivo = conditions: rats and dogs
[12] = mice; cited from earlier work

Sequence of Cdc42 (Homo sapiens, UniProt P60953) (P60953 whole entry): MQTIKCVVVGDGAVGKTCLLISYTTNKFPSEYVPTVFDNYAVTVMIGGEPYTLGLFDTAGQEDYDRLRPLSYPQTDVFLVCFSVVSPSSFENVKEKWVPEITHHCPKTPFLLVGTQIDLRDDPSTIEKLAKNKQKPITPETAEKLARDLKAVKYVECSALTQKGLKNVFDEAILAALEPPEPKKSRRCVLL

| SMILES | Rac.GTP incorporation (Rac1 [1]) | activation and expression of Rac1B (Rac1B splice variant) | Caspase-3/7 activity (GFP-HER2-BM cells [2]) | Caspase-3/7 activity (MDA-MB-231 cells) | Caspase-3/7 activity (MDA-MB-468 cells) | Rac1-GTP (Rac1 [3]; attached and detached cell population) | reduction of Rac1 activation (Rac1.GTP) (Rac1 [3]; attached cell population) | decrease in Rac1 expression (Rac1 [3]; detached cell population) | caspase-3/7 activity compared with the vehicle [4] | inhibition at 2 µM (Rac1 [5]) | inhibition of GTP loading on Rac1 catalyzed by Vav2 (Rac1 [6]) | Cdc42 activity (Cdc42 [7]) | directed migration (GFP-HER2-BM cells [8]) | Rac1(G15A) interaction with Vav2 [9] | IC50 (Cdc42 [10]) | dose with no apparent toxicity (GLP toxicity studies) | inhibition of HER2+ tumor growth and metastasis to all organs [11] | NOAEL (in vivo) | half-life in plasma [12] | half-life in tumor tissue [12] |
| --- | --- | --- | --- | --- | --- | --- | --- | --- | --- | --- | --- | --- | --- | --- | --- | --- | --- | --- | --- | --- |
| CCn1c2ccccc2c2cc(-n3nncc3-c3cccc(OC)c3)ccc21 [MBQ-168] | inhibits Rac.GTP incorporation in a dose-dependent manner | inhibited activation of Rac1B, as well as expression | significantly increased Caspase-3/7 activity | significantly increased Caspase-3/7 activity | significantly increased Caspase-3/7 activity | complete depletion | approximately 100% | approximately 100% | three to five times | ~50% | ≥ 30% | reduced in a dose-dependent manner | both cell types were inhibited | no effect |  |  |  |  |  |  |
| CCn1c2ccccc2c2cc(-n3nncc3-c3ccccc3)ccc21 [MBQ-167] |  |  |  |  |  |  |  |  |  |  |  |  |  |  | 78 nM | up to 1,000 mg/kg | approximately 90% | 1000 mg/kg | approximately 2.5 hours | approximately 8 hours |
